Measurements as given in patent US20250025493A1, “GLUCOHEXAOSE AND PREPARATION METHOD THEREFOR AND APPLICATION THEREOF, AND HAIR REGENERATION PREPARATION” (UNIVERSITY OF MACAU, priority 2021, published 2025).

Columns and labels:
[1] = system: mouse bone marrow-derived macrophages (mBMDM); assay: Induction and activation experiment on macrophages, eukaryotic mRNA sequencing of released cytokines; format: cell-based, mouse (C57BL/6J); details: 50 ug/ml, 24 h co-incubation, vs PBS group, FIG. 1
Procedure: The gulcohexaose sample prepared in example 1 above was used to perform an induction and activation experiment on mouse bone marrow-derived macrophages (mBMDM, primary cells extracted from C57BL/6J mice by laboratory methods):
Mouse bone marrow-derived monocytes (5×10^6 cells/10 cm petri dish) were seeded in 10 cm petri dishes and cultured using L929 cell culture supernatant obtained after 7 days of culture+RPMI-1640 medium+10% fetal bovine serum+1% penicillin-streptomycin in a 37° C., 5% CO2 incubator. After cell adherence, the cells were co-incubated with 50 ug/ml gulcohexaose for 24 h, designated as OG6 group, while a blank group (an experimental group to which the gulcohexaose was not added and to which an equal volume (10 μl) of PBS buffer (mainly consisted of Na2HPO4, KH2PO4, NaCl and KCl) was added) was set up, designated as PBS group. After 24 h of co-incubation, the total RNA was extracted from the sample using TRIzol (Invitrogen), eukaryotic mRNA sequencing experiment analysis and bioinformatics analysis were performed, and the difference between the expression level of cytokines released by the mouse bone marrow-derived macrophages stimulated by the gulcohexaose and the expression level of cytokines released in the blank group was compared. This experiment was repeated twice.

[2] = system: Ccl5 gene in mouse bone marrow-derived macrophages (mBMDM); assay: Verification experiment, real-time fluorescence quantitative PCR of Ccl5 gene expression in macrophages; format: cell-based, mouse (C57BL/6J); details: 50 ug/ml, FIG. 2
Source text: To verify the experimental results of eukaryotic mRNA sequencing analysis, a real-time fluorescence quantitative PCR experiment was used to determine the expression level of Ccl5 gene in macrophages stimulated by the gulcohexaose. The gulcohexaose prepared in example I was used to perform an induction and activation experiment on mouse bone marrow-derived macrophages (mBMDM, primary cells extracted from C57BL/6J mice by laboratory methods): • mouse bone marrow-derived monocytes (5×10^6 cells/10 cm petri dish) were seeded in 10 cm petri dishes and cultured using L929 cell culture supernatant obtained after 7 days of culture+RPMI-1640 medium+10% fetal bovine serum+1% penicillin-streptomycin in a 37° C., 5% CO2 incubator. […] After co-incubation for different time periods, the total RNA was extracted from the samples respectively, and the expression levels of Ccl5 cytokine in mouse bone marrow-derived macrophages before and after the stimulation by the gulcohexaose were detected by real-time quantitative PCR.

[3] = system: hair follicles in back unhairing area, androgenetic alopecia (AGA) mouse model; assay: Animal experiment, direct application, mouse model of androgenetic alopecia (AGA); format: in vivo, C57BL/6J mice; details: direct topical application on D-0, D-7, D-14, FIG. 3
Source text: The gulcohexaose sample prepared in example 1 was investigated for the biological effect in promoting hair follicle regeneration.
The method is as follows: healthy male 7-week-old C57BL/6J mice were subjected
(§1) to back unhairing treatment, wherein the hair on the back area was completely removed using an unhairing cream (Veet); starting from D-0, testosterone was topically applied to the back unhairing area of the mice every day to establish a mouse model of androgenetic alopecia (AGA), and the hair growth of the mice was photographed for recording; the gulcohexaose was directly and topically applied to the back unhairing area of the mice every seven days (D-0, D-7, D-14), designated as OG6 group; a blank group (no applying) was set up, designated as a control group; and the hair growth on the back of the mice was observed on day 21.

[4] = system: hair follicles in back unhairing area, androgenetic alopecia (AGA) mouse model; assay: Animal experiment, subcutaneous injection, mouse model of androgenetic alopecia (AGA); format: in vivo, C57BL/6J mice; details: subcutaneous injection on D-0, D-7, D-14, FIG. 4
Source text: as §1, with “The method is as follows: healthy male 7-week-old C57BL/6J mice were subjected to back” for “to back”, “day to simulate androgenetic alopecia” for “day to establish a mouse model of androgenetic alopecia”, “gulcohexaose was subcutaneously injected to the” for “gulcohexaose was directly and topically applied to the”

[5] = system: hair follicles in back unhairing area, androgenetic alopecia (AGA) mouse model; assay: Animal experiment, microneedle administration, mouse model of androgenetic alopecia (AGA); format: in vivo, C57BL/6J mice; details: microneedle administration on D-0, D-7, D-14, FIG. 5
Source text: The method is as follows: healthy male 7-week-old C57BL/6J mice were subjected to back unhairing treatment, wherein the hair on the back area was completely removed using an unhairing cream (Veet); starting from D-0, testosterone was topically applied to the back unhairing area of the mice every day to simulate androgenetic alopecia (AGA) for modeling, and the hair growth of the mice was photographed for recording; the gulcohexaose was microneedle administered to the back unhairing area of the mice every seven days (D-0, D-7, D-14), designated as OG6 group; a blank group (no applying) was set up, designated as a control group; and the hair growth on the back of the mice was observed on day 21.

[6] = system: androgenetic alopecia in mouse models; assay: Treatment of androgenetic alopecia in mouse models, summary over all administration routes; format: in vivo, mice; details: direct skin application, subcutaneous injection or microneedle release administration
Source text: The glucohexaose used in the present disclosure can be used to treat androgenetic alopecia in mouse models via any one of direct skin application administration, subcutaneous injection administration and microneedle release administration, and the hair formation is observed.

Man-Man-Man-Man-Glc-Glc [gulcohexaose]
expression level of cytokines released by macrophages versus blank group (mRNA sequencing) [1]: can specifically activate macrophages to release a cytokine network mainly comprising CCL5 chemotactic factors | expression level of Ccl5 cytokine in macrophages (real-time quantitative PCR) ([2]; 1 h, 12 h and 24 h, vs PBS group): rapidly upregulate the expression level of Ccl5 cytokine | expression level of Ccl5 cytokine in macrophages after 24 hours of stimulation ([2]; 24 h): high expression level of Ccl5 cytokine in macrophages maintained | hair growth on day 21 compared with blank group ([3]; day 21): obviously superior to that on the mice in the blank group | hair follicle stage in back treatment area compared with blank group ([3]; testosterone-induced AGA mice): have entered a growth period from a resting period and grew hair | hair growth on day 21 compared with blank group ([4]; day 21): obviously superior to that on the mice in the blank group | hair follicle stage in back treatment area compared with blank group ([4]; testosterone-induced AGA mice): have entered a growth period from a resting period and grew hair | hair growth at treated part compared with blank group ([5]; observed day 21): obviously denser than that on the mice in the blank group | hair follicle stage in back treatment area compared with blank group ([5]; testosterone-induced AGA mice): the first to enter a growth period from a resting period and are the first to grow hair | adverse reactions [6]: without any serious adverse reactions | growth of hair on the back of mice [6]: can effectively promote the growth of hair on the back of mice
